Data from patent US11491105B2, “Methods of treating microbial infections, including mastitis” (priority 2013, dated 2022).

What was measured:
MRSA 9 = experiment: Microdilution time-kill assay; format: cell-based, Staphylococcus aureus; conditions: 1×MIC; increase evident after 24 hours
Procedure: Following assessment of MIC and MBC results, two compounds were chosen for analysis using microdilution time-kill assays, LP 1369 and LP 6315 and these were compared to ampicillin. Time-kill assays were performed according to the M26-A guidelines of the CLSI, with modifications. The test compounds and ampicillin were serial diluted in CAMHB across the rows of a 96 well plate and a bacterial suspension was prepared and added in the same manner as the MIC testing. […] The time points assessed were 0, 1, 2, 4, 8, 12, 24 and 48 hours after the addition of the bacterial suspension to the wells. Each test compound was tested in triplicate while ampicillin was tested in duplicate and this test was independently repeated. The bacterial strains used for the microdilution assays were chosen based on bactericidal activity evident during MBC testing. One strain from each of the categories of Staphylococcus in the isolate collection (methicillin-sensitive, methicillin resistant and coagulase negative) were selected as well as the ATCC reference strain for comparison. These strains were strains MSS 1, MSS 11, MRSA 9 and the ATCC 49775 reference strain.

[1] = tested on: Staphylococcus isolates (methicillin-sensitive and methicillin-resistant); experiment: Minimum inhibitory concentration assay (Example 1); format: cell-based; conditions: methicillin-resistant isolates
Procedure: Forty-two isolates of Staphylococcus of varying species and strain type were collected from isolate collections. Biochemical testing including coagulase, latex agglutination testing for protein A, Vogues-Proskauer tests and resistance to polymyxin B were used to identify the species of Staphylococcus. All isolates were also screened for resistance to various antimicrobials commonly used for the treatment of infections. This was performed using the disk diffusion method and resistance standards as outlined by the CLSI. The following antimicrobials were used: amoxicillin-clavulanic acid (30 μg), cephalothin (30 μg), clindamycin (2 μg), enrofloxacin (5 μg), erythromycin (15 μg), gentamicin (10 μg), imipenem (10 μg), oxacillin (1 μg), penicillin G (10 units), tetracycline (30 μg), 1:19 trimethoprim-sulfamethoxazole (25 μg) and vancomycin (30 μg).
Minimum inhibitory concentration tests were performed according to CLSI Standards (CLSI 2012). 90 μL of one of the test compound solutions, or ampicillin, was added to the end column of a 96 well plate that contained 90 μL of CAMHB in each well. The solutions were then serially diluted across the row, leaving 2 columns for positive and negative controls (FIG. 2). A bacterial suspension was prepared by adding fresh colonies obtained from an overnight culture on Sheep Blood Agar (SBA) to a 9.1 g/L saline solution. This suspension was adjusted to a concentration of between 4×10^8 and 5×10^8 CFU/mL. Concentration of the suspension was determined by measuring optical density (OD) using a spectrophotometer at a wavelength of 600 nm where the correct concentration was determined to have an optical density of between 1.00 and 1.20. 1 mL of this suspension was added to 9 mL of saline before being added to all wells, excluding the negative control wells, in 10 μL volumes giving a final concentration of between 4×10^5 and 5×10^5 CFU/mL in each well. The tests were then incubated for 24 hours at 37° C. and then assessed both visually and using OD readings from a microplate reader at a wavelength of 600 nm. These tests were performed in duplicate but repeated if discrepancies were observed.
The minimum inhibitory concentration (MIC) was determined to be the lowest concentration of antibiotic that prevented growth of bacteria both visually and using OD readings. Direct statistical comparisons between the test compounds and ampicillin could not be performed in light of confidential information restrictions, such as restrictions on disclosure of information relating to the compound structure, such as molecular weight. Instead, MIC values were collated and used to determine the lowest concentration of each compound that was effective against 50% and 90% of isolates, referred to as the MIC50 and MIC90 respectively. These values as well as the range of MIC values were then used for direct comparisons between test compounds and for general comparisons with ampicillin.

red blood cells = experiment: Eukaryotic cell toxicity testing (erythrocyte haemolysis); format: cell-based; conditions: 2% blood cell solution, 37° C., one hour
Procedure: Erythrocyte haemolysis was used in order to test the toxicity of all five compounds to eukaryotic cells. Blood samples were washed using 9.1 g/L saline solution and centrifuged at 2500 rpm for 10 minutes. This process was repeated until cellular debris and partially lysed cells were removed from solution. 2 mL of the remaining blood cells were suspended in 98 mL of 9.1 g/L saline solution to produce a 2% blood cell solution, which was dispensed in 90 μL volumes into the wells of a 96 well plate. The compound solutions as well as chloramphenicol were prepared from stock solution to a concentration of 256 μg/mL (as described above). Chloramphenicol was used as a negative control for erythrocyte lysis while a ready to use solution of amphotericin B was used as a positive control. 90 μL of the compounds and controls were added to the final well in different rows. These compounds were serially diluted across the row in order to test the different concentrations of antimicrobials. Wells containing only 2% blood solution were also used to assess variation between readings from different columns on the 96 well plates. These tests were incubated at 37° C. for one hour and then assessed for lysis both visually and using a microplate reader to measure optical density at 600 nm wavelengths. Each test was performed in duplicate and then repeated in quadruplicate in order to ensure accuracy.

[2] = APVMA, December 2013, MRL Standard 2012; cited from earlier work
[3] = Residue depletion of LP1369 in milk of treated mastitis quarters (Example 9); parameters: species or system lactating dairy cows; conditions: in vivo
Procedure: Data on concentrations of LP1369 in milk from 6 quarters for IVP 1 and IVP 2 treated at 6 occasions (6 consecutive milkings) after treatment was provided by the analytical laboratory at the School of Pharmacy, University of South Australia, Adelaide, SA, Australia. The limit of quantification (LoQ) of the method for LP1369 in milk was 0.088 mg/L. The Maximum Residues level (MRL) for LP1369 is 0.010 mg/kg according to the APVMA, December 2013, Agricultural and Veterinary Chemicals Code Instrument No. 4 (MRL Standard) 2012.
In milk samples where LP1369 levels were below the LoQ, LP1369 concentration was set to 0.0001 mg/L.
Therefore, the concentrations of LP1369 in whole milk were log-transformed before calculating means and standard deviations (weighted by the volume of milk produced by each animal) for each time point, using Microsoft Excel 2010.
The determination of the depletion of any substance from milk is affected by the size of the population studied. As the number of sampled cows in this study was small, the g′ factor (a factor that provides a 99% confidence interval so that results are likely to be representative of the population) was applied to the analysis. The possibility of dispersed data was minimised by fixing the g′ factor for a population of 20 animals.
The following assumptions were made. […]

Question: What does the source list for `CO[C@@H]1[C@@H](OC)[C@H](C)[C@@](O)(CC(=O)O)O[C@H]1[C@H](C)[C@H]1O[C@@]2(CC[C@@](C)([C@H]3CC[C@@](C)([C@@H]4O[C@@H]([C@H]5O[C@](C)(O)[C@H](C)C[C@@H]5C)C[C@@H]4O[C@@H]4C[C@H](OC)[C@@H](OC)[C@H](C)O4)O3)O2)C[C@H](O)[C@H]1C.N` [LP 6315, Maduramicin]?
Answer: growth at 1×MIC (MRSA 9): after 48 hours this growth was no longer observed; MIC50 and MIC90 values compared with ampicillin [1]: considerably lower than ampicillin

Question: For `CC[C@@H](C(=O)[C@@H](C)[C@@H](O)[C@H](C)CCc1ccc(C)c(O)c1C(=O)O)[C@H]1O[C@](CC)([C@H]2CC[C@](O)(CC)[C@H](C)O2)C[C@@H]1C` [LP 1369, Lasalocid], which “concentration at which lysis was most visually evident” value (red blood cells) is on record?
Answer: 64000 ng/mL

Question: And the “concentration range in which some lysis of cells was observed” value (red blood cells)?
Answer: 32000 to 128000 ng/mL

Question: And the “MIC50 and MIC90 values compared with ampicillin” value [1]?
Answer: considerably lower than ampicillin

Question: What about the “Maximum Residues level (MRL)” value [2] of the same molecule?
Answer: 0.010 mg/kg

Question: What about the “clearance from treated quarters with mastitis (in words)” value [3] of the same molecule?
Answer: cleared rapidly
